This note sets out measurements from patent US8618144B2, “Pyrrolidine-derived beta 3 adrenergic receptor agonists” (Merck Sharp & Dohme Corp, priority 2009, dated 2013).

In general, EC50 refers to the concentration giving half of the maximal effect.

Structures can show the parent of a compound that is named as a salt.

In the first experiment the target is T1, human β3 adrenergic receptor (Homo sapiens, UniProt P13945).
T1 construct: expressed in transfected cells; host or cells: Chinese hamster ovary (CHO) cells, stably transfected
T1 sequence (P13945 whole entry): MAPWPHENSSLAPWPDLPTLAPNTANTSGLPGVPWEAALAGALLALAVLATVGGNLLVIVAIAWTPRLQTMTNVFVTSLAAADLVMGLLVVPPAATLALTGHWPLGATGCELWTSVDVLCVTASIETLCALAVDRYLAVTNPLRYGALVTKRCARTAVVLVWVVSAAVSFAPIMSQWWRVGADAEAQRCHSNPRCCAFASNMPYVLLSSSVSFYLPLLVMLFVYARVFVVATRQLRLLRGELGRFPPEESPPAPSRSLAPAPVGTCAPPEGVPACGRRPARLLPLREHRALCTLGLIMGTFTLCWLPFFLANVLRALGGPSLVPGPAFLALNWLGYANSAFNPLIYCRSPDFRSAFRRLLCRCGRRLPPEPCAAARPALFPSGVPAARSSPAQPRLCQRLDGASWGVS
As to the kind of experiment: Functional Assay: cAMP production in CHO cells stably transfected with cloned β3-adrenergic receptor (LANCE). Type of experiment: cell-based. The conditions noted are these: CHO cells expressing β3 receptor, range classes, read-out: Human β3 EC50. As for the experimental part:
Functional Assay: cAMP production in response to ligand is measured according to Barton et al (1991, Agonist-induced desensitization of D2 dopamine receptors in human Y-79 retinoblastoma cells. Mol. Pharmacol. […]) modified as follows. cAMP production is measured using a homogenous time-resolved fluorescence resonance energy transfer immunoassay (LANCE™, Perkin Elmer) according to the manufacture's instructions. Chinese hamster ovary (CHO) cells, stably transfected with the cloned β-adrenergic receptor (β1, β2 or β3) are harvested after 3 days of subculturing. Harvesting of cells is done with Enzyme-free Dissociation Media (Specialty Media). Cells are then counted and resuspended in assay buffer (Hank's Balanced salt solution supplemented with 5 mM HEPES, 0.1% BSA) containing a phosphodiesterase inhibitor (IBMX, 0.6 mM). The reaction is initiated by mixing 6,000 cells in 6 μL with 6 μL Alexa Fluor labeled cAMP antibody (LANCE™ kit) which is then added to an assay well containing 12 ul of compound (diluted in assay buffer to 2× final concentration). The reaction proceeds for 30 minutes at room temperature and is terminated by the addition of 24 μL detection buffer (LANCE™ kit). The assay plate is then incubated for 1 hour at room temperature and time-resolved fluorescence measured on a Perkin Elmer Envision reader or equivalent. The unknown cAMP level is determined by comparing fluorescence levels to a cAMP standard curve.
The non-selective, full agonist β-adrenergic ligand isoproterenol is used at all three receptors to determine maximal stimulation. The human β3 adrenergic receptor (AR) selective ligand (S)—N-[4-[2-[[2-hydroxy-3-(4-hydroxyphenoxy)propyl]amino]ethyl]-phenyl]-4-iodobenzenesulfonamide is used as a control in all assays. Isoproterenol is titrated at a final concentration in the assay of 10^−10 M to 10^−5 M and the selective ligand (S)—N-[4-[2-[[2-hydroxy-3-(4-hydroxyphenoxy)propyl]amino]ethyl]phenyl]-4-iodobenzenesulfonamide is titrated at the β3 receptor at concentration of 10^−10 M to 10^−5 M. Unknown ligands are titrated at all 3β-adrenergic receptor subtypes at a final concentration in the assay of 10^−10 M to 10^−5 M to determine the EC50. The EC50 is defined as the concentration of compound that gives 50% activation of its own maximum. Data are analyzed using Microsoft Excel and Graphpad Prism or an internally developed data analysis software package.
For orientation: cAMP levels reflect the balance of adenylyl cyclase and phosphodiesterase activity.
For the compound `O=C(Cc1nnc(-c2ccccc2)[nH]1)Nc1ccc(C[C@@H]2CC[C@H]([C@H](O)COc3ccccc3)N2)cc1` [Example 6], the EC50 was < 1 nM.

Regarding `Cc1csc(CC(=O)Nc2ccc(C[C@@H]3CC[C@H]([C@H](O)COc4ccccc4)N3)cc2)n1` [Example 3], the 50% effective concentration (EC50) fell in the range of 1 to 10 nM.

Turning to `Cc1nc(CC(=O)Nc2ccc(C[C@@H]3CC[C@H]([C@H](O)COc4ccccc4)N3)cc2)c(C)s1` [Example 5], the EC50 lay within 1 to 10 nM.

Staying with this experiment, now noted: CHO cells expressing β3 receptor, read-out: human β3 functional activity (EC50).
Turning to `O=S(=O)(Nc1ccc(C[C@@H]2CC[C@H]([C@H](O)COc3ccccc3)N2)cc1)c1ccc(I)cc1` [Example 13], the EC50 is < 10 nM.

On to `O=S(=O)(Nc1ccc(C[C@@H]2CC[C@H]([C@H](O)COc3ccccc3)N2)cc1)c1ccc(-c2nc(-c3ccc(C(F)(F)F)cc3)cs2)cc1` [Example 12, N-[4-({(2S,5R)-5-[(1S)-1-Hydroxy-2-phenoxyethyl]pyrrolidin-2-yl}methyl)phenyl]-4-{4-[4-(trifluoromethyl)phenyl]-1,3-thiazol-2-yl}benzenesulfonamide trifluoroacetate salt], for which the EC50 is < 10 nM.

With `Nc1nc(CC(=O)Nc2ccc(C[C@@H]3CC[C@H]([C@H](O)COc4ccccc4)N3)cc2)cs1` [Example 1, 2-(2-Amino-1,3-thiazol-4-yl)-N-[4-({(2S,5R)-5-[(1S)-1-hydroxy-2-phenoxyethyl]pyrrolidin-2-yl}methyl)phenyl]acetamide bis-trifluoroacetate salt], the EC50 is < 1 nM.

As for `Nc1ncn(CC(=O)Nc2ccc(C[C@@H]3CC[C@H]([C@H](O)COc4ccccc4)N3)cc2)n1` [Example 15, 2-(3-Amino-1H-1,2,4-triazol-1-yl)-N-[4-({(2S,5R)-5-[(1S)-1-hydroxy-2-phenoxyethyl]pyrrolidin-2-yl}methyl)phenyl]acetamide trifluoroacetate salt], the EC50 is < 1 nM.

For `CCCCCCNC(=O)Nc1ccc(S(=O)(=O)Nc2ccc(C[C@@H]3CC[C@H]([C@H](O)COc4ccccc4)N3)cc2)cc1` [Example 14, 4-{[(Hexylamino)carbonyl]amino}-N-[4-({(2S,5R)-5-[(1S)-1-hydroxy-2-phenoxyethyl]pyrrolidin-2-yl}methyl)phenyl]benzenesulfonamide trifluoroacetate salt], the EC50 is < 1 nM.

`Nc1nc(CC(=O)Nc2ccc(C[C@H]3CC[C@H]([C@H](O)COc4ccccc4)N3)cc2)cs1` [Example 11, 2-(2-Amino-1,3-thiazol-4-yl)-N-[4-({(2R,5R)-5-[(1S)-1-hydroxy-2-phenoxyethyl]pyrrolidin-2-yl}methyl)phenyl]acetamide bis trifluoroacetate salt]: the EC50 is 100 to 1000 nM.
